Experimental data: patent publication US20060099712A1, “Correlation of anti-cancer activity of dyes with redox potentials” (Eastman Kodak Company, priority 2004, published 2006)
Values joined by “and” are separate entries in the source; they are usually repeats but may differ in a detail not shown here. Identical values can stand only once. Like-named read-outs stand apart in the source and are kept apart here.

Tests used:
[1] = test system: CV-1 Normal Monkey Kidney Epithelial; experiment: Clonogenic dye screening assay, CV-1 cells (IC50); assay type: cell-based, African green monkey; conditions: for IC50: Primates; for CV (IC50 in the CV-1 cell line): 3 hrs treatment, unit from method b117-118
Description: CX-1 is a cancerous human colon adenocarcinoma cell line. CV-1 is a non-cancerous control, which is a kidney epithelial cell line from an African green monkey. IC50 is the dye concentration at which 50% of the cells are killed. Selectivity or kill ratio is defined as the ratio of […] at IC50 for both CX-1 and CV-1. A ratio with a high number indicates a high selectivity.
The dyes were screened in two cell lines. CX-1 is a human colon adenocarcinoma cell line. CV-1 is a kidney epithelial cell line from an African green monkey. CV-1 was used as a reference because no normal human epithelial cell line is available for clonogenic assay.
In the initial screen, dyes were examined at six different concentrations to generate a dose response curve. An IC50 value, the concentration at which 50% of the cells are killed, was then calculated. Initially, a dye concentration of 1.0 μg/mL was the highest examined for the CX-1 cell line and 0.005 μg/mL was the lower limit. The corresponding limits on the CV-1 cell line were […].
The screening procedure used a response curve that was determined from eight dye concentrations. The upper and lower limits of CX-1 were 0.32 and 0.0015 μg/mL, respectively, and the corresponding revised limits on CV-1 were 3.2 and 0.025 μg/mL. The screening results were reported by assigning an IC50 value to each dye for the CV-1 and CX-1 cell lines. These values will be referred to herein simply as CV and CX. The most desirable result would be to have a dye that was highly toxic to carcinoma cells but nontoxic to ‘normal’ cells. One measure of this type of selectivity is the ratio of the IC50's in the normal cell line to that in the carcinoma line, CV/CX.
Compounds are screened via an in vitro assay. CV-1 and CX-1 cells are seeded into separate assay plates. The plates are treated with varying concentrations of test compounds, rinsed, and colonies allowed to grow. IC50's are determined and drugs evaluated based on their selectivity and toxicity. Assay Steps: • I. Seeding Cells • II. Weighing • III. Preparation of Solution • IV. Treatment • V. Rinsing and Feeding • VI. Fixing • VII. IC50 Determination I. Seeding Cells
The cells should be seeded 16-30 hours before treatment. The media for CV-1 cells is DME+5% calf serum +5% Nuserum. The media for CX-1 cells is RPMI/DME (50/50)+5% calf serum +5% Nuserum.
(c) number of cells based on 2000 CX-1 cells/well and 1000 CV-1 cells/well. NOTE: Always make enough cell suspension for 1 extra plate to allow for volume loss during transfers.
• (a) For CV-1: 256 ug/ml-256 ul of 1 mg/ml stock +744 ul DMSO • (b) For CX-1: 25.6 ug/ml-100 ul of 256 ug/ml+900 ul DMSO IV. Treatment • 1. Each plate is treated with 4 test compounds, one positive control and one negative control. • 2. Serial dilutions of the compounds are made in the following way:
2 multi-well pipetters are used. One is set for 10 ul and one for 200 ul. Each is equipped with 6 tips spaced such that they fit into the 6 rows of a plate. 390 ul of media is added to the first column of each plate. 10 ul each of 4 compound solutions, a positive and a negative control are taken up and put into the first column of wells. The 200 ul pipetter is then placed in the same wells, pipetted up and down 3 times and two 200 ul aliquots are moved to the next column of wells. This column is pipetted up and down 3 times and 400 ul moved to column 3, etc. The final 400 ul excess from column 8 is discarded.
• 3. Label the plates along the front, each row −1 compound. • 4. Incubate the plates at 37° C. for 3 hrs. V. Rinsing • 1. Prepare several bottles of CX-1 and CV-1 media. • 2. Check for precipitate in first column of each plate and note. • 3. Starting with the plates treated first, rinse several plates at a time by aspirating the treatments and refilling each well with 0.5-1.0 ml of the rinse media. Aspirate and refill 2 more times for a total of 3 rinses. • 4.

[2] = test system: CX-1 Human Colon Carcinoma; experiment: Clonogenic dye screening assay, CX-1 cells (IC50); assay type: cell-based; conditions: for IC50: Homo sapiens; for Selectivity: Table 1, cell line not given, values equal CV/CX of Table II; for CV/CX (selectivity, kill ratio): ratio of IC50 in normal CV-1 line to IC50 in carcinoma CX-1 line
Outline: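 Cells seeded 16-30 h ahead (2000 CX-1 or 1000 CV-1 per well), exposed to serially diluted dyes for 3 h at 37 °C, rinsed three times, then grown into colonies. Eight-point curves spanned 0.32-0.0015 μg/mL (CX-1) and 3.2-0.025 μg/mL (CV-1). IC50 is the concentration killing 50% of cells.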

[3] = Electrochemical reduction potential (Er) measurement, SHACV / fast scan CV; assay type: physicochemical
Description: In the practice of this invention the reduction potential of a given dye may be determined in various ways. If available, the published reduction potential may be employed. Reduction potentials for numerous cyanine and merocyanine dyes are available in the literature. (See J. Lenhard, Journal of Imaging Science, vol. 30 pp. 27-35 (1986).) A large amount of data has been generated on the reduction and oxidation potentials of these dyes from their use in photography and related arts where they are employed, inter alia, as spectral sensitizers.
If a published reduction potential is not available, suitable techniques for measuring reduction potential are available. Accurate electrochemical oxidation and reduction potentials for these organic dyes can be measured by the techniques of fast scan cyclic voltommetry (CV) or second harmonic ac voltommetry (SHACV). SHACV measurements are made as described by Lenhard in the Journal of Imaging Science volume 30, 1986 pp 27-35 using a commercially available (Princeton Applied Research Corp.) potentiostat in conjunction with voltage programmer, a conventional lock-in amplifier, and a low-distortion oscillator. The SHACV method utilizes an ac voltage waveform (of a frequency greater than or equal to 400 hz) that is superimposed on a DC potential ramp. On the other hand, the measurement of the oxidation or reduction potential by the CV method utilizes a (high frequency) triangular voltage waveform. The general procedures for measuring potentials by this method have been described by Wightman in Analytical Chemistry, 1984, vol. 56, pp524 and Journal of Physical Chemistry, 1984, vol. 88, pp3915. The specific application of this technique to the measurement of cyanine dye potentials has been reported by Nomura and Okazaki, Chemistry Letters, 1990, pp2231-2234. Commercial instrumentation especially designed for fast scan (i.e., high frequency) CV is available. It is noteworthy that because of the complicated nature of many of the cyanine dyes, electrochemical reactions, conventional slow scan cyclic voltommetry or polarography methods (as described by R. Large in Photographic Sensitivity, R. Cox, ed., Academic Press, New York, 1973, pp 241-263) provide only approximate values for oxidation and reduction potentials. Errors as large as 0.4 V from the true potential can be obtained by using slow scan CV or electrochemical methods.
The procedure for measuring the oxidation or reduction potential by the SHACV or fast scan CV method utilizes solutions of acetonitrile (or similar nonaqueous solvent) with added tetrabutylammonium tetrafluoroborate TBABF4 at a concentration of 0.1 M and ca. 5×10^−4 M of the cyanine, oxonol, or merocyanine dye. For measurement of the reduction potential the solution must be deaerated with argon prior to examination. The preferred working electrode is a Pt disk (ca. 0.02 cm^2) that is polished with 1 μm diamond paste, rinsed with water, and dried before each experiment. The reference electrode is a NaCl saturated calomel electrode. The cell and reference electrodes are maintained at 22 C. A value of 40 mV is added to the measured potentials to convert the number to that corresponding to an Ag/AgCl reference electrode. If a solvent other than acetonitrile is used then the measured potential must be referenced to a standard organic redox system such as ferrocene and corrected accordingly.
SHACV (Second Harmonic Alternating Current Voltametry) measurements are made as described by Lenhard in the Journal of Imaging Science volume 30, 1986 pp 27-35 using a commercially available (Princeton Applied Research Corp.) potentiostat in conjunction with voltage programmer, a conventional lock-in amplifier, and a low-distortion oscillator. The SHACV method utilizes an ac voltage waveform (of a frequency greater than or equal to 400 hz) that is superimposed on a DC potential ramp. […]

[4] = CV-1, 3 hrs treatment, colonies after 7-10 days, unit from method, read-out: CV (IC50 in the CV-1 cell line)
[5] = CX-1, 3 hrs treatment, colonies after 7-10 days, unit from method, read-out: CX (IC50 in the CX-1 cell line)

| Structure (SMILES) | IC50 [1, 4] [mg/L] | IC50 [2, 5] [mg/L] | CV/CX (selectivity, kill ratio) [2] | further results |
| --- | --- | --- | --- | --- |
| CCN1/C(=c2\s/c(=c3\s/c(=C/c4sc5ccccc5[n+]4CC)n(CC)c3=O)n(CC)c2=O)Sc2ccccc21 [Dye D-112] | 9 | 0.01 | 900 | Selectivity [2]: 900; ER(v), electrochemical reduction potential [3]: −1.1 V |
| Clc1ccc2c(c1)N1CCC(/C=C3\CC[n+]4c3sc3ccc(Cl)cc34)=C1S2 [Dye D-168] | – | 3 | 100.0 | Selectivity [2]: 100.0; ER(v), electrochemical reduction potential [3]: −0.9 V |
| CC[n+]1c(/C=C/C=C2/c3c(C)ccc(C)c3C(C)(Cc3ccccc3)N2C)sc2ccccc21 [Dye D-132] | 3 | 0.007 | 430 and 428.57 | IC50 ([1]; CV-1, Table XVI, unsymmetrical dyes, CV-1 cells, read-out: CV): 3 mg/L; IC50 ([2]; CX-1, Table XVI, unsymmetrical dyes, CX-1 cells, read-out: CX): 0.007 mg/L; Selectivity [2]: 428.57; CV/CX ([2]; Table XVI, selectivity ratio of IC50 values): 428.6 |
| CC[n+]1c(/C=C/C=C2/c3c(C)ccc(C)c3C(C)(Cc3ccccc3)N2C)sc2ccc3ccccc3c21 [Dye D-133] | 3 | 0.009 | 333.5 | Selectivity [2]: 333.5 |
| CCN1C(=O)/C(=C\C=C2/Oc3ccccc3N2CC)S/C1=N\c1sc2ccccc2[n+]1CC [Dye D-107] | 3 | 0.05 | 60 | – |
| CCN1/C(=C/C=C/C=C/c2sc3cc4ccccc4cc3[n+]2CC)Sc2cc3ccccc3cc21 [Dye D-162] | 3 | – | 60 | – |
| CCN1/C(=C/C=C/c2oc3ccccc3[n+]2CC)Sc2ccc(O)cc21.[I-] [Dye D-128] | – | – | 60 | CV (IC50 in the CV-1 cell line) ([1]; colonies after 7-10 days): 0.3 mg/L |
| CCN1/C(=C(\C=C\c2oc3ccccc3[n+]2CC)c2ccccc2)Sc2ccccc21.[I-] [Dye D-139] | – | – | 100 | CV (IC50 in the CV-1 cell line) ([1]; colonies after 7-10 days): 3.0 mg/L; CX (IC50 in the CX-1 cell line) ([2]; 3 hrs treatment, colonies after 7-10 days, unit from method b117-118): 0.03 mg/L |
| C(=C\c1cc[n+]2c3c(cccc13)Sc1ccccc1-2)/C=c1\ccn2c3ccccc3sc3cccc1c3-2 [Dye D-117] | 7 | 0.1 | 70 | – |
| CCN1/C(=C\C=c2\s/c(=C/c3sc4ccccc4[n+]3CC)n(C)c2=O)Sc2ccccc21 [Dye D-111] | 8 | 0.03 | 270 and 266.7 | – |
| CCN1/C(=C/C=c2\s/c(=C\c3sc4ccccc4[n+]3CC)n(CCC(=O)O)c2=O)Sc2ccccc21 [Dye D-167] | 10 | – | 100.0 | – |
| CC[n+]1c(/C=C/C=C2\Sc3ccccc3N2C(C)C)oc2ccccc21 [Dye D-122] | 0.4 | < 0.005 | 80 and >80.0 | IC50 ([1]; CV-1, Table XXI, oxathiacarbocyanine nitrogen substituents, CV-1 cells, read-out: CV): 0.4 mg/L; IC50 ([2]; CX-1, Table XXI, oxathiacarbocyanine nitrogen substituents, CX-1 cells, read-out: CX): < 0.005 mg/L; CV/C ([2]; Table XXI, selectivity ratio, value of 1 where dye inactive): >80.0 |
| CC[n+]1c(/C=C/C=C2\SC=C(C)N2C)oc2ccccc21 [Dye D-120] | 5 | 0.01 | 500 | – |
| CCSC(=C\c1oc2ccccc2[n+]1C)/C=C1\Sc2ccccc2N1CC.[I-] [Dye D-127] | – | – | 60 | CV (IC50 in the CV-1 cell line) ([1]; colonies after 7-10 days): 0.3 mg/L |
| CC[n+]1c(/C=C/C=C2\SCCCN2C)sc2ccccc21 [Dye D-144] | 3 | 0.03 | 100 | – |
